The values below are quoted from earlier work in US7666887B2, “Stable, neutral pH, VOC-free biocidal compositions of 1,2-benzisothiazolin-3-one” (ISP Investments, Inc., priority 2004, dated 2010).

The conditions of data set [1]: in some individuals.

`O=c1[nH]sc2ccccc12` [BIT, 1,2-benzisothiazolin-3-one]: the aqueous solubility result is “low”. In addition, the sensitization result in data set [1] is recorded as “can cause sensitization”.
